# Tests used:
# Format in all cases: cell-based, P. aeruginosa
# [1] = system: MvfR regulon; assay: Quantification of pyocyanin (OD520nm of chloroform-extracted cultures); conditions: Pseudomonas aeruginosa; for activity at 50 µM: read-out: pyocyanin @50 uM (%), compound at 50 uM
# [2] = system: MvfR regulon; assay: pqsA gene expression (pqsA-GFP reporter); conditions: Pseudomonas aeruginosa; for activity at 50 µM: read-out: pqsA @50 uM (%), compound at 50 uM
# Procedure: Experiments were performed to identify compounds that inhibit the MvfR regulon without altering growth, ultimately attenuating P. aeruginosa infection. MvfR is a LysR-type transcriptional regulator that directs HAQs synthesis, including that of its ligands, 4-hydroxy-2-heptylquinoline (HHQ) and 3,4-dihydroxy-2-heptylquinoline (PQS).
# MvfR promotes the production of HAQs by binding to and activating the pqs operon, which encodes enzymes for HAQ synthesis. Anthranilic acid (AA), derived from the phnAB, kynABU, and trpEG pathways, is the precursor for HAQs. pqsA encodes an anthranilate-coenzyme A ligase, which activates anthranilic acid and catalyzes the first committed step to HAQ production. The exact roles of PqsB and PqsC are unknown, though both show homology to acyl-carrier-proteins and both are required for HHQ and PQS production. […] The final gene of the operon, pqsE encodes for a putative hydrolase, and while the protein is not required for the synthesis of HAQs, it is necessary for pyocyanin production.
# Nanomolar levels of most of these MvfR antagonists impeded the activity of MvfR and in consequence the MvfR virulence regulated ACRP functions, including: (1) the production of the important pro-acute P. aeruginosa virulence factor pyocyanin (see e.g., FIG. 9A) the efficacy of two of these potent inhibitors, D57 and D88, was also confirmed by testing many different MDR P. aeruginosa clinical isolates (see e.g., FIG. 11A-11B), providing further confidence of their inhibitory potency; (2) the expression of the genes that encode the enzymes catalyzing the synthesis of both pro-acute and pro-persistence MvfR-regulated virulence molecules, 4-hydroxyl-2-alkyl-quinolines (HAQs) and 2-aminoacetophenon (2-AA), as assessed by pqsAGFP reporter gene expression (see e.g., FIG. 9B) and HAQ production showing the levels of MvfR inducers/ligands HHQ and PQS as well as of the molecules critical for biofilm and Antibiotic tolerant/persiters cells formation HQNO and 2-AA (see e.g., FIG. 9C); (3) AT/P cell formation (see e.g., FIGS. 11A, 12A); (4) biofilm formation (see e.g., FIG. 12B); and (5) biofilm dispersal of preformed biofilm by potentiating antibiotic action (see e.g., FIG. 11B).
# [3] = system: MvfR regulon; assay: LC/MS quantification of HAQs and related molecules in bacterial culture supernatants; conditions: Pseudomonas aeruginosa
structure (smiles),measurement,setting,value
Cc1ccccc1N(C)CC(=O)Nc1ccc(C#N)cc1 [Compound 12],activity at 50 µM,[1],96%
same,activity at 50 µM,[2],95.7%
same,activity at 50 µM,[3]; read-out: 2-AA @50 uM,63.1%
same,activity at 50 µM,[3]; read-out: DHQ @50 uM,51.5%
same,activity at 50 µM,[3]; read-out: HHQ @50 uM (%),73.4%
same,activity at 50 µM,[3]; read-out: HQNO @50 uM (%),91.2%
same,activity at 50 µM,[3]; read-out: PQS @50 uM (%),95.5%
N#Cc1ccc(NC(=O)CCNc2ccc(F)cc2)cc1 [Compound 46],activity at 50 µM,[1],90.8%
same,activity at 50 µM,[2],79.6%
same,activity at 50 µM,[3]; read-out: 2-AA @50 uM,113%
same,activity at 50 µM,[3]; read-out: AA @50 uM,101%
same,activity at 50 µM,[3]; read-out: DHQ @50 uM,99.5%
same,activity at 50 µM,[3]; read-out: HHQ @50 uM (%),97%
same,activity at 50 µM,[3]; read-out: HQNO @50 uM (%),95.8%
same,activity at 50 µM,[3]; read-out: PQS @50 uM (%),97.2%
N#Cc1ccc(NC(=O)CCNc2ccc(F)cc2F)cc1 [Compound 47],activity at 50 µM,[1],88.3%
same,activity at 50 µM,[2],74.3%
same,activity at 50 µM,[3]; read-out: 2-AA @50 uM,100%
same,activity at 50 µM,[3]; read-out: AA @50 uM,129%
same,activity at 50 µM,[3]; read-out: DHQ @50 uM,99.3%
same,activity at 50 µM,[3]; read-out: HHQ @50 uM (%),109%
same,activity at 50 µM,[3]; read-out: HQNO @50 uM (%),101%
same,activity at 50 µM,[3]; read-out: PQS @50 uM (%),108%
N#Cc1ccc(NC(=O)CC(=O)Nc2ccc(F)cc2)cc1 [Compound 48],IC50,[1]; read-out: IC50 pyocyanin (μM),7.1 µM
same,activity at 50 µM,[1],15.7%
same,IC50,[2]; read-out: IC50 pqsA (μM),5.5 µM
same,activity at 50 µM,[2],9.7%
same,IC50,"[3]; PA14, read-out: IC50 2-AA (μM)",20.9 µM
same,IC50,"[3]; PA14, read-out: IC50 DHQ (μM)",33 µM
same,IC50,"[3]; PA14, read-out: IC50 HHQ (μM)",47.5 µM
same,IC50,"[3]; PA14, read-out: IC50 PQS (μM)",36.5 µM
same,activity at 50 µM,[3]; read-out: 2-AA @50 uM,37.3%
same,activity at 50 µM,[3]; read-out: AA @50 uM,187%
same,activity at 50 µM,[3]; read-out: DHQ @50 uM,68.3%
same,activity at 50 µM,[3]; read-out: HHQ @50 uM (%),56.8%
same,activity at 50 µM,[3]; read-out: HQNO @50 uM (%),58.5%
same,IC50,[3]; read-out: IC50 AA (increase; μM),42.5 µM
same,IC50,[3]; read-out: IC50 HQNO (μM),33.7 µM
same,activity at 50 µM,[3]; read-out: PQS @50 uM (%),46.7%
N#Cc1ccc(NC(=O)C(=O)Nc2ccc(F)cc2)cc1 [Compound 49],activity at 50 µM,[1],106%
same,activity at 50 µM,[2],96.9%
same,activity at 50 µM,[3]; read-out: 2-AA @50 uM,103%
same,activity at 50 µM,[3]; read-out: AA @50 uM,89.8%
same,activity at 50 µM,[3]; read-out: DHQ @50 uM,105%
same,activity at 50 µM,[3]; read-out: HHQ @50 uM (%),97.9%
same,activity at 50 µM,[3]; read-out: HQNO @50 uM (%),99.5%
same,activity at 50 µM,[3]; read-out: PQS @50 uM (%),110%
Cc1cc(F)ccc1N1CCCC(NC(=O)c2ccc(C#N)cc2)C1 (centres unmarked) [Compound 50],activity at 50 µM,[1],108%
same,activity at 50 µM,[2],89.9%
same,activity at 50 µM,[3]; read-out: 2-AA @50 uM,101%
same,activity at 50 µM,[3]; read-out: AA @50 uM,54.5%
same,activity at 50 µM,[3]; read-out: DHQ @50 uM,84.2%
same,activity at 50 µM,[3]; read-out: HHQ @50 uM (%),98.5%
same,activity at 50 µM,[3]; read-out: HQNO @50 uM (%),100%
same,activity at 50 µM,[3]; read-out: PQS @50 uM (%),96.1%
Cc1cc(F)ccc1CCNC(=O)c1ccc(C#N)cc1 [Compound 51],activity at 50 µM,[1],110%
same,activity at 50 µM,[2],91.4%
same,activity at 50 µM,[3]; read-out: 2-AA @50 uM,106%
same,activity at 50 µM,[3]; read-out: AA @50 uM,68%
same,activity at 50 µM,[3]; read-out: DHQ @50 uM,95.5%
same,activity at 50 µM,[3]; read-out: HHQ @50 uM (%),96.2%
same,activity at 50 µM,[3]; read-out: HQNO @50 uM (%),102%
same,activity at 50 µM,[3]; read-out: PQS @50 uM (%),93.5%
Cc1cc(F)ccc1NC(=O)Cc1ccc(C#N)cc1 [Compound 52],activity at 50 µM,[1],115%
same,activity at 50 µM,[2],95.7%
same,activity at 50 µM,[3]; read-out: 2-AA @50 uM,113%
same,activity at 50 µM,[3]; read-out: AA @50 uM,80.7%
same,activity at 50 µM,[3]; read-out: DHQ @50 uM,84.9%
same,activity at 50 µM,[3]; read-out: HHQ @50 uM (%),102%
same,activity at 50 µM,[3]; read-out: HQNO @50 uM (%),109%
same,activity at 50 µM,[3]; read-out: PQS @50 uM (%),99.8%
N#Cc1ccc(NC(=O)CNC(=O)c2ccc(F)cc2)cc1 [Compound 58],activity at 50 µM,[1],94%
same,activity at 10 µM,"[2]; read-out: pqsA @10 uM (%), compound at 10 uM",11%
same,activity at 50 µM,[2],70.7%
same,activity at 50 µM,[3]; read-out: 2-AA @50 uM,86.6%
same,activity at 50 µM,[3]; read-out: AA @50 uM,32.3%
same,activity at 50 µM,[3]; read-out: DHQ @50 uM,89.8%
same,activity at 50 µM,[3]; read-out: HHQ @50 uM (%),77.8%
same,activity at 50 µM,[3]; read-out: HQNO @50 uM (%),85.9%
same,activity at 50 µM,[3]; read-out: PQS @50 uM (%),85.1%
